According to PMC9260081, “Design, Synthesis, and Evaluation of Anticonvulsant Activities of New Triazolopyrimidine Derivatives” (Frontiers in Chemistry, 2022):
pKi: −log10 of the molar value. Where “and” joins values, the source holds several entries; their conditions need not be identical. Equal entries are not always repeated. Where two headings read alike, the source gives them in different places. Marks after values point to notes of the source that are not given here.

Assays:
MES-induced seizures = assay: Maximal electroshock seizure (MES) test; type: in vivo, mice; details: for minimal effective dose / ED50: Mus musculus, ip; for minimal effective dose: dosages 30, 100, 300 mg/kg, read-out: MES screening, minimum dose whereby bioactivity was demonstrated in half or more of the mice; for MES model, number of animals protected/number of animals tested: 30 mg/kg, 0.5 h; for ED50: read-out: ED50 MES; for PI MES, protective index (TD50/ED50): TD50 rotarod / ED50 MES, mice i.p.
Protocol: (§1) Male Kunming mice with weights from 18 to 22 g were used in all the pharmacological experiments. The mice were housed in the standard cages with 10 each, where a controlled temperature (25°C ± 2°C) with a 12 h light/dark cycle was maintained. All animals had free access to food and water. All experiments and procedures involving animals were carried out according to the Guide for the Care and Use of Laboratory Animals (National Academies Press, Washington, D.C., United States). Approval from the local medical ethical committee was obtained before the experiment.
In the MES test, mice were subjected to ear stimulation using a 0.2 s 60-Hz 50-mA alternating current to elicit seizures. Tonic hind limb extension was considered as the seizure occurring, and the vanishing of tonic hind limb extension indicates the protection against the MES-induced seizures. Mice were injected intraperitoneally with test compounds at doses of 300, 100, and 30 mg/kg to evaluate their general anticonvulsant activity. Half and 4 h intervals were chosen to test the anti-MES activity. […] A series of doses of the tested compounds were injected into the mice with 10 in one group.

PTZ-induced seizures = assay: Subcutaneous pentylenetetrazole (PTZ) test; type: in vivo, mice; details: for minimal effective dose / ED50: Mus musculus; for minimal effective dose / ED50 / PI scPTZ, protective index (TD50/ED50): ip; for minimal effective dose: dosages 30, 100, 300 mg/kg, read-out: PTZ screening, minimum dose whereby bioactivity was demonstrated in half or more of the mice; for PTZ model, number of animals protected/number of animals tested: 30 mg/kg, 0.5 h; for ED50: read-out: ED50 scPTZ; for PI scPTZ, protective index (TD50/ED50): male, Kunming, mouse, in vivo
Protocol: as §1
In the PTZ test, mice were subcutaneously administered with PTZ at the dose of 85 mg/kg. At this dose, mice can be elicited a threshold seizure characterized by an episode of clonic spasms and tonic spasms. After being treated with test compounds at doses of 300, 100, and 30 mg/kg, the mice were considered protected if a single episode of clonic spasms of more than 5 s duration was not obtained. The quantitative anticonvulsant activity (ED50) in the PTZ model was determined and calculated with the same method described in the MES test.

[1] = system: ability to maintain equilibrium on rotating rod; assay: Neurotoxicity screening (rotarod test); type: in vivo; details: i.p.; for NT screening (rotarod), minimum neurotoxic dose in half or more of the mice: dosages 30, 100, 300 mg/kg
Protocol: as §1
(§2) The rotarod test was used to evaluate the neurotoxicity of the synthesized compounds. Before the formal experiments, mice were trained to climb on a rotating rod of diameter 3.2 cm with the rotation speed of 10 rpm. Test compounds in the three doses were intraperitoneally injected into the trained mice. […] The rough neurotoxic dose was obtained in which mice cannot maintain equilibrium on the rod for at least 1 min. The quantitative neurotoxic dose (TD50) of the test compounds was measured and calculated with the same method described in the MES test.

[2] = Neurotoxicity screening (rotarod test); type: in vivo; details: male, Kunming, mouse, in vivo, ip; rotarod, mice; 95% confidence interval in brackets
Protocol: as §1, §2

BIC-induced seizures = assay: Bicuculline (BIC)-induced seizure test; type: in vivo; details: BIC 5.4 mg/kg, compound 30 mg/kg, test time 0.5 h, percentage of animals, 10 mice
Protocol: as §1
(§3) In the BIC-induced seizure test, groups of 10 mice were administered with 30 mg/kg of test samples or vehicle. Then, 30 min later, the minimum dose of BIC (5.4 mg/kg) that could completely induce seizures for mice was subcutaneously injected into the test mice. The mice were placed into separate cages each, and the number of clonic seizures, tonic seizures, and mortality was recorded for 30 min.

GABAA BZD receptor = assay: Radioligand receptor binding assay ([3H]-flumazenil competition); details: rat brain membranes; for IC50: competition with 0.5 nM [3H]-flumazenil, 95% CI in brackets; for pKi: competition with [3H]-flumazenil, Cheng–Prusoff
3-MP-induced seizures = assay: 3-Mercaptopropionic acid (3-MP)-induced seizure test; type: in vivo; details: 3-MP 60 mg/kg; compound 30 mg/kg, test time 0.5 h; percentage of animals, 10 mice
Protocol: as §1
as §3, with “3-MP–induced” for “the BIC-induced”, “After” for “Then,”, “min,” for “min later,”, “3-MP (60” for “BIC (5.4”, “intraperitoneally” for “subcutaneously”

[3] = pretreated with flumazenil (FMZ) 10 mg/kg 15 min before seizure induction
[4] = pretreated with thiosemicarbazide (TSC) 25 mg/kg/day for 3 days
[5] = mice, 95% confidence interval in brackets

Compound	minimal effective dose (MES-induced seizures; mice, 0.5 h after injection) [mg/kg]	minimal effective dose (MES-induced seizures; mice, 4 h after injection) [mg/kg]	minimal effective dose (PTZ-induced seizures; mice, 0.5 h after injection) [mg/kg]	minimal effective dose (PTZ-induced seizures; mice, 4 h after injection) [mg/kg]	NT screening (rotarod), minimum neurotoxic dose in half or more of the mice ([1]; 0.5 h after injection)	NT screening (rotarod), minimum neurotoxic dose in half or more of the mice ([1]; 4 h after injection)	ED50 (MES-induced seizures; [5]) [mg/kg]	PI MES, protective index (TD50/ED50) (MES-induced seizures)	ED50 (PTZ-induced seizures; [5]) [mg/kg]	PI scPTZ, protective index (TD50/ED50) (PTZ-induced seizures)	TD50 at 30 min [2] [mg/kg]	further results
c1ccc(-c2ccnc3ncnn23)cc1 [Compound 3a, 7-Phenyl-[1,2,4]triazolo[1,5-a]pyrimidine]	300	> 300	100	> 300	— (A dash indicates the absence of anticonvulsant activity and neurotoxicity at the maximum dose administered (300 mg/kg))	— (A dash indicates the absence of anticonvulsant activity and neurotoxicity at the maximum dose administered (300 mg/kg))						melting point: 142 to 143 °C
CCCCCCOc1ccc(-c2ccnc3ncnn23)cc1 [Compound 6d, 7-(4-(Hexyloxy)phenyl)-[1,2,4]triazolo[1,5-a]pyrimidine]	30	100	30	> 300	300 mg/kg	— (A dash indicates the absence of anticonvulsant activity and neurotoxicity at the maximum dose administered (300 mg/kg))	15.8	20.1	14.1	22.5	317	MES model, number of animals protected/number of animals tested (MES-induced seizures; [3]): completely reversed and 0/5***; MES model, number of animals protected/number of animals tested (MES-induced seizures; [4]): completely reversed and 0/5***; MES model, number of animals protected/number of animals tested (MES-induced seizures; pretreatment with saline): full protection and completely protected and 5/5 ^c and 5/5; PTZ model, number of animals protected/number of animals tested (PTZ-induced seizures; [3]): completely reversed and 0/5***; PTZ model, number of animals protected/number of animals tested (PTZ-induced seizures; [4]): completely reversed and 0/5***; PTZ model, number of animals protected/number of animals tested (PTZ-induced seizures; pretreatment with saline): full protection and 5/5; Clonic seizure (%) (BIC-induced seizures): 10%; Lethality (%) (BIC-induced seizures): 0%; Tonic seizure (%) (BIC-induced seizures): 0%; IC50 (GABAA BZD receptor): 8.4 nM; pKi (GABAA BZD receptor): 8.41
NC(=O)N1c2ccccc2C=Cc2ccccc21 [Carbamazepine, reference compound]							9.8	4.5	> 100	<0.44	44	Clonic seizure (%) (3-MP-induced seizures): 100%; Lethality (%) (3-MP-induced seizures): 0** %; Tonic seizure (%) (3-MP-induced seizures): 0*** %; Clonic seizure (%) (BIC-induced seizures): 100%; Lethality (%) (BIC-induced seizures): 20** %; Tonic seizure (%) (BIC-induced seizures): 0*** %; Lethality (%) (BIC-induced seizures; listed as carbamazepine): significantly inhibited; Tonic seizure (%) (BIC-induced seizures; listed as carbamazepine): significantly inhibited
CCCCCOc1ccc(-c2ccnc3ncnn23)cc1 [Compound 6c, 7-(4-(Pentyloxy)phenyl)-[1,2,4]triazolo[1,5-a]pyrimidine]	30	300	30	> 300	— (A dash indicates the absence of anticonvulsant activity and neurotoxicity at the maximum dose administered (300 mg/kg))	— (A dash indicates the absence of anticonvulsant activity and neurotoxicity at the maximum dose administered (300 mg/kg))	25.3	15.0	23.7	16.0	380	
CN1C(=O)CN=C(c2ccccc2)c2cc(Cl)ccc21 [Diazepam, reference compound]												ED50 (MES-induced seizures): 10.1 mg/kg; ED50 (PTZ-induced seizures): 0.5 mg/kg; IC50 (GABAA BZD receptor): 1.3 nM; pKi (GABAA BZD receptor): 9.21
c1ccc(COc2ccc(-c3ccnc4ncnn34)cc2)cc1 [Compound 6e, 7-(4-(Benzyloxy)phenyl)-[1,2,4]triazolo[1,5-a]pyrimidine]	30	300	30	> 300	300 mg/kg	— (A dash indicates the absence of anticonvulsant activity and neurotoxicity at the maximum dose administered (300 mg/kg))	38	9.6	28.4	12.9	366	
Clc1ccc(-c2ccnc3ncnn23)c(Cl)c1 [Compound 3e, 7-(2,4-Dichlorophenyl)-[1,2,4]triazolo[1,5-a]pyrimidine]	100	> 300	100	> 300	— (A dash indicates the absence of anticonvulsant activity and neurotoxicity at the maximum dose administered (300 mg/kg))	— (A dash indicates the absence of anticonvulsant activity and neurotoxicity at the maximum dose administered (300 mg/kg))						
O=[N+]([O-])c1ccc(-c2ccnc3ncnn23)cc1 [Compound 3g, 7-(4-Nitrophenyl)-[1,2,4]triazolo[1,5-a]pyrimidine]	> 300	> 300	> 300	> 300	— (A dash indicates the absence of anticonvulsant activity and neurotoxicity at the maximum dose administered (300 mg/kg))	— (A dash indicates the absence of anticonvulsant activity and neurotoxicity at the maximum dose administered (300 mg/kg))						
Cc1ccc(-c2ccnc3ccnn23)cc1 [Compound 4h, 7-(P-tolyl)pyrazolo[1,5-a]pyrimidine]	> 300	> 300	300	> 300	— (A dash indicates the absence of anticonvulsant activity and neurotoxicity at the maximum dose administered (300 mg/kg))	— (A dash indicates the absence of anticonvulsant activity and neurotoxicity at the maximum dose administered (300 mg/kg))						
CCCC(CCC)C(=O)O [Valproate, reference compound]							264	1.6	149	2.8		TD50 ([1]; rotarod, mice, 95% confidence interval in brackets): 418 (369–450) mg/kg
COc1ccc(-c2ccnc3ccnn23)cc1 [Compound 4i, 7-(4-Methoxyphenyl)pyrazolo[1,5-a]pyrimidine]	> 300	> 300	300	> 300	— (A dash indicates the absence of anticonvulsant activity and neurotoxicity at the maximum dose administered (300 mg/kg))	— (A dash indicates the absence of anticonvulsant activity and neurotoxicity at the maximum dose administered (300 mg/kg))						
